Reference: US10464957B2, “Oxidized lipids and methods of use thereof” (Vascular Biogenics Ltd., priority 2014, dated 2019)

Key:
[1] = test system: human monocytes (primary CD14+); experiment: Chemokine-induced cell migration trans-well assay; type: cell-based; conditions: RANTES 100 ng/ml and MCP-1 50 ng/ml, 2-4 hours, FACS count
Method: Venous blood samples were obtained from healthy male donors in compliance with the Institutional Review Board at the Sheba Medical Center, Ramat Gan, Israel. PBMCs were isolated on Ficoll-Paque PLUS (GE Healthcare, Uppsala, Sweden) using 50 ml Leucosep tubes (Greiner Bio-One, Frickenhausen, Germany). Cells were washed in PBS (Kibbutz Beit Haemek, Israel) and incubated at 4° C. for 15 minutes in a buffer containing PBS and 0.5% bovine serum albumin (BSA) with human CD14 microbeads (Miltenyi Biotec, Bergisch Gladbach, Germany).
Cells (10^6/ml) were pretreated for 20 min with VB-201 or VB-701 at the doses indicated in FIG. 5, or with solvent (Sol).
To test for chemokine-induced cell migration, RANTES (100 ng/ml; Cat. No. 300-06, PeproTech, Israel) and MCP-1 (50 ng/ml; Cat. No. 300-04, PeproTech, Israel) were dissolved in RPMI-1640 medium supplemented with 0.5% fetal bovine serum (FBS) and placed at the lower chamber of QCM 24-well, […], migration assay plates (Corning-Costar, Corning, N.Y.). Cells (3×10^5) were seeded in the upper chamber and incubated for 2-4 hours. Subsequently, the number of cells which migrated to the lower compartment was determined by fluorescence-activated cell sorting (FACS).

[2] = target: T1, TLR4 complex (Homo sapiens, UniProt O00206+Q9Y6Y9); experiment: LPS binding inhibition assay (biotin-LPS, FACS); conditions: biotin-LPS 100 ng/ml, FACS
T1 construct: endogenous in cells; probably the human primary monocytes of b454
Method: To assess interference with lipopolysaccharide (LPS) binding, VB-201 or VB-703 were incubated for 20 min with cells (10^6/ml) after which 100 ng/ml of biotin-LPS (InvivoGen) was added for an additional 15 minutes, all at 4° C. Cells were washed, resuspended in FACS buffer and analyzed on a FACS-Calibur device.

[3] = test system: kidney of nephrectomized rats; experiment: Real-time PCR of pro-fibrotic markers in kidney of nephrectomized rats; type: in vivo, Sprague Dawley (SD) Rats
Method: Kidney RNA was extracted with an RNeasy Fibrous Tissue Mini kit (Qiagen) and after DNAse I treatment, single-stranded cDNA was synthesized from 2 μg total RNA using the qScript cDNA Synthesis Kit (Quanta Biosciences) and diluted for real-time PCR. The expression of collagen 4α, fibronectin and TGFβ was quantified using the 7300 Real Time PCR System (Applied Biosystems). The assay was performed according to manufacturer instructions using the primers (Assay ID) represented at the table below supplied by Applied Biosystems. Data were normalized to the reference gene TATA box Binding Protein (TBP) and presented as relative mRNA levels compared with Sham PBS 0.5% Eth treatment (Table 1).

[4] = test system: nephrectomized rats; experiment: 5/6 nephrectomy chronic renal disease rat model (focal and segmental glomerulosclerosis); type: in vivo, Sprague Dawley (SD) Rats; conditions: VB-703 4 mg/kg
Method: Male Sprague Dawley (SD) Rats (Harlan Laboratories, Israel) with an initial weight of 200 g were housed 2-3 per cage in IVC cages in dedicated HVAC (heat, ventilation, air conditioning animal facility at a temperature of 22±2° C. and RH (relative humidity) of 55±15%). Temperature and humidity were monitored continuously. The facility had no exposure to outside light and was maintained on automatic alternating cycles of 12 hours of light and 12 hours of dark. Animals were provided with a commercial rodent diet (Harlan Teklad TRM Rat/Mouse Diet) ad libitum and allowed free access to autoclaved water, supplied to each cage via polysulphone bottles with stainless steel sipper tubes. All animal work was approved by the Animal Care and Use Committee of Israel (IL-13-03-027).
Rats were divided into three groups: (1) Healthy rats (n=3) in group A, (2) Sham group—subjected to chirurgical process but without kidney mass reduction (n=3) in group B, and (3) the rest were induced with chronic renal failure (n=32). Chronic renal failure was induced by a two stage (5/6) nephrectomy (Nx), with subtraction firstly of about ⅔ of the left kidney by left flank incision and, one week later, complete removal of the right kidney. General anesthesia consisted of intraperitoneal injection of ketamine 100 mg/kg and xylazine 20 mg/kg (0.85 ml ketamine+0.15 ml xylazine for each ml preparation; 1 μl/g BW was injected I.P).
One week following the second surgery, rats were randomly assigned to the following experimental groups:
Nephrectomized, orally administered with VB-703 4 mg/kg (n=8); and
Nephrectomized, orally administered with telmisartan 10 mg/kg as positive control (n=8).
Body weight (BW) was monitored throughout the study and rats were treated by oral gavage according to their body weight for 7 weeks. Rats were sacrificed by CO2 inhalation 8 weeks from removal of the right kidney (2nd surgery).
Proteinuria and albuminuria was determined in urine specimens, collected during a 24-hour period, from animals housed in cages at 4 weeks (3 w of treatment) and 8 weeks (7 w of treatment) after the subtotal nephrectomy (2nd surgery). Urine samples were analyzed for: glucose, urea, sodium, potassium, creatinine, total protein, and albumin.
Upon sacrifice, at 8 weeks, kidneys were collected, weighed and fixed in 4% formaldehyde.
For light microscopy, paraffin-embedded tissue slides of 4 μm were stained with Periodic Acid-Schiff (PAS) reagent, Masson's Trichrome and Hematoxylin & Eosin.
Glomerular sclerosis index. Glomerulosclerosis was assessed by PAS-stained sections using a semiquantitative scoring system. The extent of glomerulosclerosis was evaluated by examining mostly 100 randomly selected glomeruli at a magnification of ×400 and applying a score system according to the percentage of sclerosed glomerular area. The score was graded from 0 to 4: (0=0% area; 1=1-25%; 2=26-50%, 3=51-75%, 4=76% and above). The mean of all scored glomeruli was presented. Moreover, the extent of global and segmental glomerulosclerosis was evaluated in the same glomeruli, where <80% sclerosis was referred to as segmental and >80% was referred to as global.
Glomerular area. The glomerular area of mostly 100 randomly selected glomeruli at a magnification of ×100 was quantitated by counting squares covered by glomeruli area using a grid and the mean glomeruli area was calculated.
Renal tissues were fixed in 4% formaldehyde and embedded in paraffin. The paraffin-embedded tissues were then cut to form tissue slides of 4 μm. Immunohistochemistry of the paraffin-embedded tissue slides was analyzed using antibodies in the following concentration: monoclonal mouse anti rat CD-68 (ED-1, Serotec MCA341) 1:25. For quantitation of interstitial CD68+ staining, the number of positive cells was counted in 20 randomly selected non-overlapping fields per animal, and the mean value was presented. […]

[5] = test system: NASH-induced mice; experiment: NASH and liver fibrosis mouse model (STZ + HFD), liver histology; type: in vivo; conditions: VB-703 4 mg/kg, telmisartan 10 mg/kg, once daily for three weeks
Method: Neonatal male mice exposed to low-dose streptozotocin (STZ) develop liver steatosis with diabetes. Continuous high fat diet (HFD) increases lobular inflammation with foam cell-like macrophages, showing nonalcoholic steatohepatitis (NASH) pathology. NASH was induced in 40 male mice by a single subcutaneous injection of 200 μg per mouse of STZ two days after birth and feeding HFD [57 kcal % fat]) from four weeks of age. Vehicle, VB-703 (4 mg/kg), or telmisartan (10 mg/kg) as positive control, were administered once daily for three weeks, starting from six weeks of age. Mice were sacrificed at nine weeks of age.
Liver pathology was used to determine the effect of VB-703 on liver inflammation and fibrosis. Histology slides were stained with hematoxylin/eosin (H&E) to assess inflammation. The inflammation score was determined as follows:
Histology slides were stained with Sirius red to determine collagen content as a marker for the extent of fibrosis.

[6] = compared to Nx PBS 0.5% Eth treatment, VB-703 4 mg/kg, telmisartan 10 mg/kg
[7] = normalized to TBP, relative to Sham PBS 0.5% Eth, mean±SEM
[8] = Nx rats, Telmisartan 10 mg/kg, 8 weeks, Mean ± S.E
[9] = telmisartan 10 mg/kg, oral 7 weeks, vs Nx PBS 0.5% Eth

T1 sequence (O00206 24-839): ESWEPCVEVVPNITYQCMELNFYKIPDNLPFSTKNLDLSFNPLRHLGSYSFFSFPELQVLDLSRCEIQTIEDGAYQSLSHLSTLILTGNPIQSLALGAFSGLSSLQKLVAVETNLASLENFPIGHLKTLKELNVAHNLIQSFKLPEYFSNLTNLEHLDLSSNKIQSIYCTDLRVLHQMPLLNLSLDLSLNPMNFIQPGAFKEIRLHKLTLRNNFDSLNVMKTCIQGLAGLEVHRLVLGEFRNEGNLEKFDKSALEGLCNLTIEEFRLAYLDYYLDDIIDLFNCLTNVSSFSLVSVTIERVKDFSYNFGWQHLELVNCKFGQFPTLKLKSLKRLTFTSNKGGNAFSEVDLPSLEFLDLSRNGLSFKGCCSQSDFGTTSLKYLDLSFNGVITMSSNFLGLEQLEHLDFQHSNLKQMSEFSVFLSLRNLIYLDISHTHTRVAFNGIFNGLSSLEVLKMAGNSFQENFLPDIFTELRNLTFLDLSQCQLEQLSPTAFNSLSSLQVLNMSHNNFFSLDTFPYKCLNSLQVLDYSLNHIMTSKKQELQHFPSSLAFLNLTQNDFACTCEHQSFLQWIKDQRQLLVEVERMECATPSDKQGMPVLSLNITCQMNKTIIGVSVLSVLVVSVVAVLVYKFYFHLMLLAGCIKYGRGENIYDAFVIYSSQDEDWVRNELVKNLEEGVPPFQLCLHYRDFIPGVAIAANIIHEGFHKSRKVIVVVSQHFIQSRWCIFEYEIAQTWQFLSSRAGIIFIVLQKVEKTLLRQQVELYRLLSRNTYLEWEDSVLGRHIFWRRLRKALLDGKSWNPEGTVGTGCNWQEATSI
T1 sequence (Q9Y6Y9 17-160 limits assumed): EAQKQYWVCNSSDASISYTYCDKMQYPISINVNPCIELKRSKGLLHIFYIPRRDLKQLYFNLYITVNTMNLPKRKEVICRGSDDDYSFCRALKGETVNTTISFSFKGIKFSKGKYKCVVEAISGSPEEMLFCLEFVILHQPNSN

For `CCCCCCCCCCCCCCCCOCC(COP(=O)([O-])OCC[n+]1ccccc1)OCCCCC(=O)OC` (stereo not drawn) [VB-704, 1-hexadecyl-2-(4′-carboxymethyl)butyl-glycero-sn-3-phosphoric acid pyridiniumethyl ester], the “chemokine-induced migration of human monocytes” value [1] was “inhibits” and the “LPS-biotin binding to human monocytes (primary CD14+)” value [2] was “does not inhibit”.

With `CCCc1nc2c(C)cc(-c3nc4ccccc4n3C)cc2n1Cc1ccc(-c2ccccc2C(=O)O)cc1` [telmisartan, reference compound] the “reduction of Collagen IV expression” value [3, 6] was 41%, the “reduction of TGF-β expression” value [3, 6] was 44% and the “reduction of fibronectin expression” value [3, 6] was 23%. For the same compound, the “Collagen IV mRNA expression (relative mRNA level)” value [3, 7] was 4.4±0.23, the “TGF-β mRNA expression (relative mRNA level)” value [3, 7] was 4.7±0.52 and the “fibronectin mRNA expression (relative mRNA level)” value [3, 7] was 9.8±2.09. The “Glomerular sclerosis Global %” value [4, 8] was 1.9 ± 1.60%, the “Glomerular sclerosis Global & Segmental %” value [4, 8] was 21.0 ± 5.45% and the “Glomerular sclerosis Segmental %” value [4, 8] was 19.1 ± 4.30%. The “glomerular and interstitial monocyte/macrophage infiltration (CD68 positive cells)” value ([4]; telmisartan 10 mg/kg, 8 weeks) was “did not produce a significant effect”, the “reduction of damaged glomeruli percent” value [4, 9] was 31% and the “reduction of sclerotic glomeruli” value [4, 9] was 57%. For the same compound, the “decrease of liver fibrosis compared to vehicle treated mice (Sirius red)” value [5] was 47%.
